The source of these data is PMC6027051, “Polymer–Surfactant System Based Amorphous Solid Dispersion: Precipitation Inhibition and Bioavailability Enhancement of Itraconazole” (Pharmaceutics, 2018).

Each structure is given as a SMILES string. Values after ≈ are worked out from the molar mass of the structure shown. Where two headings read alike, the source gives them in different places.

Common to all, as to format: physicochemical
The nature of data set [1]: Supersaturation dissolution test with pH-shift (SGF to SIF, USP paddle method). As for the experimental part: In order to simulate the drug peristalsis in vivo situation, a transfer of simulated gastric fluid (SGF) to SIF was conducted for in vitro dissolution experiment. Supersaturation dissolution tests were performed according to USP 29 Apparatus 2 guidelines (paddle method) with a ZRS-8G dissolution tester (TDTF, Tianjin, China). Briefly, samples containing equivalent amounts of ITZ (45 mg) were subjected to each dissolution vessel containing SGF (750 mL of 0.1 N HCl) for 2 h, followed by pH adjustment to 6.8 by the addition of 250 mL of 0.2 M tribasic sodium phosphate (Na3PO4) for additional 3 h. The dissolution media was kept at 37.0 ± 0.5 °C and the paddle speed was maintained at 100 rpm throughout the test procedure. Aliquot samples (5 mL) were withdrawn at predetermined time intervals (120, 125, 150, 180, 240, and 300 min). The samples were filtered through a […] millipore filter and the first few drops were discarded. The filtrate was immediately diluted with methanol to prevent the precipitation. The ITZ concentration was assayed by ultraviolet spectrophotometry (TU-1901, Beijing Purkinje General Instrument Co., Ltd., Beijing, China) at a wavelength of 263 nm. The calibration curve of ITZ in UV spectrophotometry was shown in Figure 1B with a concentration range of 0.25–80 μg/mL. […]

The nature of data set [2]: Equilibrium solubility of ITZ in SIF with or without surfactant (shaking flask method). The following applies: for solubility thermodynamic at 48 h: 37 °C, n = 3, read-out: ITZ Concentration in SIF (equilibrium solubility). As for the experimental part: An excess amount of ITZ was added to SIF with or without pre-dissolved surfactant (1 mg/mL) and mixed by vortex for 2 min. After incubation in a shaking incubator at 37 °C for 48 h, the suspension was centrifuged (15,000 rpm for 10 min) and filtered through a 0.22 μm Millipore filter (Jinteng Experimental Equipment Co., Ltd, Tianjin, China). Prior to assay by high performance liquid (HPLC) (Shimadzu Corporation, Kyoto, Japan) using a PhenomenexC18 column (4.6 × 250 mm, 5 μm), the filtrate was diluted 1:1 with mobile phase. The mobile phase was consisted of 0.5% diisopropylamine in methanol and 0.1% ammonium acetate in distilled water (80:20) with a rate of 1.0 mL/min. The effluent was monitored at an ultraviolet-visible (UV) absorption wavelength of 263 nm. The retention time of ITZ under these conditions was 4.9 min. Calibration curve (Figure 1A) were linear over a concentration range of 0.04–40 μg/mL. The limit of quantitation (LOQ) and limit of detection (LOD) was 25 ng and 10 ng, respectively. Each equilibrium solubility test was performed in triplicate.

Data set [3] is described as follows: Nucleation induction time measurement (turbidity at 490 nm, plate reader) in SIF. The conditions noted are these: supersaturated ITZ solution by solvent shift (DMSO stock into SIF), absorbance 490 nm. As for the experimental part:
Supersaturation stability is commonly evaluated by measuring the induction time for nucleation, which is defined as the time lag for the appearance of the observable crystals. In this study, the precipitation induction time of different formulations were obtained by determining the changes in turbidity using plate reader detection technique. Supersaturated ITZ solutions were prepared by the solvent shift method. All the samples were dissolved in dimethyl sulfoxide (DMSO) to obtain ITZ stock solution at a concentration of 1mg/mL, then the stock solution was added into SIF and stirred constantly to generate a supersaturated solution. Immediately, 300 μL of individual supersaturated solution was transferred into a 96-well polypropylene plate and the optical density value of each well was measured at 490 nm using plate reader (Bio-Tek, Winooski, VT, USA). […] Thus, the turbidity was the only contributor to the changed absorbance. The samples were also shaken before the measurement and each formulation was detected in triplicate. All the analyses and calculations were carried out using Gen 5.0 (Bio-Tek, Winooski, VT, USA).

In the case of `CCC(C)n1ncn(-c2ccc(N3CCN(c4ccc(OCC5COC(Cn6cncn6)(c6ccc(Cl)cc6Cl)O5)cc4)CC3)cc2)c1=O` (centres unmarked) [ITZ, Itraconazole], the “ITZ released after 2 h in SGF” value in data set [1] (SGF (0.1 N HCl), 120 min, 37 °C, 45 mg ITZ) came to 3%. In addition, in data set [1] (SIF pH 6.8, precipitation from five minutes after the pH change), the “Cumulative release amount after pH change to 6.8 (rapid precipitation, eventually dropped to)” value is listed as below 1%. In addition, the solubility thermodynamic at 48 h in data set [2] (SIF with Poloxamer 188 1 mg/mL, pH 6.8, SIF pH 6.8 with Poloxamer 188 1 mg/mL) stood at 0.92 ± 0.27 µg/mL (≈ 1.3 µM); in data set [2] (SIF with SDS 1 mg/mL, pH 6.8, SIF pH 6.8 with SDS 1 mg/mL) it was 1.66 ± 0.53 µg/mL (≈ 2.35 µM); in data set [2] (SIF with Soluplus 1 mg/mL, pH 6.8, SIF pH 6.8 with Soluplus 1 mg/mL) it was 0.1 ± 0.06 µg/mL (≈ 0.142 µM); in data set [2] (SIF with TPGS 1 mg/mL, pH 6.8, SIF pH 6.8 with TPGS 1 mg/mL) it was 4.83 ± 0.81 µg/mL (≈ 6.84 µM); in data set [2] (SIF with Tween 80 1 mg/mL, pH 6.8, aqueous with cosolvent or surfactant or cyclodextrin, thermodynamic from solid, SIF pH 6.8 with Tween 80 1 mg/mL), 0.03 ± 0.01 µg/mL (≈ 0.0425 µM); in data set [2] (SIF with sodium cholate 1 mg/mL, pH 6.8, aqueous with cosolvent or surfactant or cyclodextrin, thermodynamic from solid, SIF pH 6.8 with Sodium cholate 1 mg/mL), 0.07 ± 0.02 µg/mL (≈ 0.0992 µM). Besides, in data set [2] (simulated intestinal fluid (SIF) without surfactant, pH 6.8, fassgf or other biorelevant, thermodynamic from solid, SIF pH 6.8 without surfactant (Blank group)), the solubility thermodynamic at 48 h is around 0.008 µg/mL (≈ 0.0113 µM). The “Increase of equilibrium solubility in the presence of TPGS over SIF” value in data set [2] (SIF with TPGS vs SIF alone) is recorded as “approximately 580 fold”. Further, the “Turbidity / precipitation behaviour in the absorbance-time curve” value in data set [3] was “rapid increase in the absorbance followed by a gradual decline”.
